In PubChem BioAssay (NCI):
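The compound was tested at five concentrations on cells cultured in 96-well plates, with a 48-hour exposure period. GI50: concentration for 50% inhibition of growth. At the TGI there is no net growth.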

Legend:
Assay in all cases: NCI anticancer screen, dose series, 48 h
[1] = test system: UACC-257 melanoma
[2] = test system: ACHN renal
[3] = test system: SR leukemia
[4] = test system: PC-3 prostate
[5] = test system: CAKI-1 renal
[6] = test system: UACC-62 melanoma
[7] = test system: NCI-H522 lung
[8] = test system: SK-MEL-2 melanoma
[9] = test system: SF-268 CNS
[10] = test system: NCI/ADR-RES ovarian

For `Cc1cc(S(=O)(=O)Nc2nnc3c(C(F)(F)F)cc(Cl)cn23)c(S)cc1Cl`, the TGI [1] was > 100 µM, the TGI [2] was > 100 µM and the TGI [3] was > 100 µM. The TGI [4] was > 100 µM, the TGI [5] was > 100 µM and the TGI [6] was > 100 µM. For the same compound, the TGI [7] was > 100 µM, the TGI [8] was > 100 µM and the TGI [9] was > 100 µM. For the same compound, the TGI [10] was > 100 µM.
In the case of `COC(=O)c1ccc(-c2nc(C#N)c(N)o2)cc1`, the TGI [1] is reported as > 100 µM, the TGI [2] is reported as > 100 µM and the TGI [3] is reported as > 100 µM. For the same compound, the TGI [4] was > 100 µM, the TGI [5] was > 100 µM and the TGI [7] was > 100 µM. For the same compound, the TGI [8] was > 100 µM and the TGI [9] was > 100 µM.
With `CC(=O)N(CN1C(=O)CCC1C(=O)O)c1ccccc1` (stereo unspecified) the TGI [1] was > 100 µM, the TGI [2] was > 100 µM and the TGI [3] was > 100 µM. The TGI [4] was > 100 µM, the TGI [5] was > 100 µM and the TGI [6] was > 100 µM. For the same compound, the TGI [7] was > 100 µM, the TGI [8] was > 100 µM and the TGI [9] was > 100 µM. The TGI [10] was > 100 µM.
For `CCN(CC)CCO/N=C1\CC[C@H]2[C@@H]3CC=C4C[C@@H](O)CC[C@]4(C)[C@H]3CC[C@]12C`, the TGI [1] was 30.4 µM, the TGI [2] was > 100 µM and the TGI [3] was 26.4 µM. For the same compound, the TGI [4] was 50.2 µM, the TGI [5] was 30 µM and the TGI [6] was 31.1 µM. For the same compound, the TGI [7] was 34 µM, the TGI [8] was 48.4 µM and the TGI [9] was > 100 µM. For the same compound, the TGI [10] was > 100 µM.
With `O=C(/C=C/c1ccc(-c2ccccc2[N+](=O)[O-])o1)NCc1ccc(C(=O)NCCc2ccccc2)cc1` the TGI [1] was > 100 µM, the TGI [2] was > 100 µM and the TGI [3] was > 100 µM. The TGI [4] was > 100 µM, the TGI [5] was > 100 µM and the TGI [6] was > 100 µM. The TGI [7] was > 100 µM, the TGI [8] was > 100 µM and the TGI [9] was > 100 µM. For the same compound, the TGI [10] was > 100 µM.
In the case of `Cc1ccc(S(=O)(=O)n2cncc2CO)cc1`, the TGI [1] is reported as > 100 µM, the TGI [2] is reported as > 100 µM and the TGI [3] is reported as > 100 µM. The TGI [4] was > 100 µM, the TGI [5] was > 100 µM and the TGI [6] was > 100 µM. The TGI [7] was > 100 µM, the TGI [8] was > 100 µM and the TGI [9] was > 100 µM. The TGI [10] was > 100 µM.
`CCOC(=O)c1ccc(C(=O)C(C(C)=O)C(=O)OC(C)(C)C)n1C` (stereo unspecified) was tested, and the TGI [1] was > 100 µM, the TGI [2] was > 100 µM and the TGI [3] was > 100 µM. For the same compound, the TGI [4] was > 100 µM, the TGI [5] was > 100 µM and the TGI [6] was > 100 µM. The TGI [7] was > 100 µM, the TGI [8] was > 100 µM and the TGI [9] was > 100 µM. For the same compound, the TGI [10] was > 100 µM.
`CCc1nnc(-n2c(C)nc3cc(Cl)ccc3c2=O)s1` was tested, and the TGI [1] was > 100 µM, the TGI [2] was > 100 µM and the TGI [3] was > 100 µM. For the same compound, the TGI [4] was > 100 µM, the TGI [5] was > 100 µM and the TGI [6] was 61.7 µM. For the same compound, the TGI [7] was 75.4 µM, the TGI [9] was > 100 µM and the TGI [10] was > 100 µM.
In the case of `COc1ccc(C2OC(=O)c3c2ccc2ccccc32)c(C)c1` (stereo unspecified), the TGI [1] is reported as 80.5 µM, the TGI [2] is reported as > 100 µM and the TGI [3] is reported as > 100 µM. The TGI [4] was 97.1 µM, the TGI [6] was 90.5 µM and the TGI [8] was 7.52 µM.
For `CC(NC(=O)/C(=C/c1ccccc1O)NC(=O)c1ccccc1)C(=O)O` (stereo unspecified), the TGI [1] was > 100 µM, the TGI [2] was 33.2 µM and the TGI [5] was 37.2 µM. The TGI [6] was > 100 µM, the TGI [7] was 50 µM and the TGI [9] was 32.9 µM. The TGI [10] was 33.4 µM.
`CN1CCn2c(Br)ccc2C1=O` was tested, and the TGI [1] was > 100 µM, the TGI [2] was > 100 µM and the TGI [3] was > 100 µM. For the same compound, the TGI [5] was > 100 µM, the TGI [6] was > 100 µM and the TGI [7] was > 100 µM. The TGI [8] was > 100 µM and the TGI [9] was > 100 µM.
`Nc1nc(Cl)cc(N=Nc2ccccc2)n1` was tested, and the TGI [1] was > 100 µM, the TGI [2] was 97.2 µM and the TGI [3] was > 100 µM. The TGI [5] was > 100 µM, the TGI [6] was > 100 µM and the TGI [7] was > 100 µM. The TGI [8] was 46.9 µM, the TGI [9] was > 100 µM and the TGI [10] was > 100 µM.
In the case of `c1ccc(CCN2CCCCCC2)nc1`, the TGI [2] is reported as > 100 µM, the TGI [4] is reported as > 100 µM and the TGI [5] is reported as > 100 µM. The TGI [6] was > 100 µM, the TGI [7] was > 100 µM and the TGI [8] was > 100 µM. For the same compound, the TGI [9] was > 100 µM and the TGI [10] was > 100 µM.
`CN=C(Nn1cnnc1)OC` was tested, and the TGI [1] was > 100 µM, the TGI [2] was > 100 µM and the TGI [3] was > 100 µM. For the same compound, the TGI [4] was > 100 µM, the TGI [5] was > 100 µM and the TGI [6] was > 100 µM. The TGI [7] was > 100 µM, the TGI [8] was > 100 µM and the TGI [10] was > 100 µM.
In the case of `O=c1[nH]c(=O)n(C2OC(COP(=O)(O)OP(=O)(O)O)C(O)C2O)cc1F` (stereo unspecified), the TGI [1] is reported as > 50 µM, the TGI [2] is reported as > 44.7 µM and the TGI [3] is reported as > 50 µM. The TGI [5] was 34.8 µM, the TGI [6] was > 42.6 µM and the TGI [7] was 34.3 µM. For the same compound, the TGI [8] was > 50 µM and the TGI [9] was > 50 µM.
For `Clc1nc(-[n+]2ccc(-c3ccncc3)cc2)nc(Nc2ccccc2)c1Cl`, the TGI [1] was > 100 µM, the TGI [2] was > 100 µM and the TGI [3] was 77.4 µM. The TGI [4] was > 100 µM, the TGI [6] was > 100 µM and the TGI [8] was > 100 µM. The TGI [9] was > 100 µM and the TGI [10] was > 100 µM.
Work on `O=[N+]([O-])c1cccc([N+](=O)[O-])c1S(=O)(=O)c1ccccc1` yielded a TGI [1] of 28.8 µM, a TGI [2] of 3.92 µM and a TGI [4] of 32.3 µM. The TGI [5] was 3.76 µM, the TGI [9] was 29 µM and the TGI [10] was 31.4 µM.
With `COC(=O)c1sc(=S)sc1SCc1ccccc1CSc1sc(=S)sc1C(=O)OC` the TGI [1] was > 100 µM, the TGI [2] was > 100 µM and the TGI [4] was > 100 µM. The TGI [5] was > 100 µM, the TGI [6] was > 100 µM and the TGI [7] was > 100 µM. For the same compound, the TGI [8] was > 100 µM, the TGI [9] was > 100 µM and the TGI [10] was > 100 µM.
For `CCOC(=O)C(C)(C)Oc1ccc2c(=O)cc(-c3ccccc3)oc2c1`, the TGI [1] was 31.2 µM, the TGI [2] was > 100 µM and the TGI [6] was 33.7 µM. The TGI [7] was 28.5 µM, the TGI [8] was 31.5 µM and the TGI [9] was 56.3 µM.
For `COc1cccc(NC(=O)CSc2nnc(-c3ccc(N=Cc4ccc(Cl)cc4)cc3)o2)c1`, the TGI [2] was 30.3 µM, the TGI [3] was > 100 µM and the TGI [6] was 35.1 µM. For the same compound, the TGI [7] was 32.9 µM, the TGI [8] was 39.8 µM and the TGI [9] was 46.3 µM.
`Cc1cccc(C(C)(C)C)c1NC(=O)/C(Cc1nc2ccc([N+](=O)[O-])cc2[nH]c1=O)=N/NC(=O)C[N+](C)(C)C` was tested, and the TGI [1] was > 100 µM, the TGI [2] was > 100 µM and the TGI [4] was > 100 µM. For the same compound, the TGI [5] was > 100 µM, the TGI [6] was > 100 µM and the TGI [7] was > 100 µM. For the same compound, the TGI [8] was > 100 µM, the TGI [9] was > 100 µM and the TGI [10] was > 100 µM.
`COc1cc([C@@H]2c3cc4c(cc3[C@@H](NC(=O)c3ccc(N)cc3)C3COC(=O)[C@@H]32)OCO4)cc(OC)c1O` (stereo partly specified) was tested, and the TGI [1] was > 100 µM, the TGI [2] was 4.9 µM and the TGI [5] was 89.4 µM. The TGI [6] was 10.9 µM, the TGI [7] was 9.23 µM and the TGI [8] was 28.3 µM. For the same compound, the TGI [9] was > 100 µM.
For `N#Cc1c(NC(=O)c2ccccc2)sc2c1CCC(=O)C2`, the GI50 [1] was 1.59 µM, the TGI [1] was 5.49 µM and the GI50 [2] was 0.906 µM. It also gave a TGI [2] of 2.3 µM, a GI50 [4] of 0.385 µM and a TGI [4] of 13.3 µM. It also gave a GI50 [5] of 0.38 µM, a TGI [5] of 1.86 µM and a GI50 [6] of 0.404 µM. It also gave a TGI [6] of 1.93 µM, a GI50 [7] of 0.358 µM and a TGI [7] of 4.66 µM. It also gave a GI50 [8] of 2.45 µM, a TGI [8] of 8.65 µM and a GI50 [9] of 2.59 µM. The TGI [9] was 38.4 µM, the GI50 [10] was 1.33 µM and the TGI [10] was 11.8 µM.
